Each molecule was assayed against T1, GR (Homo sapiens, UniProt P04150) (assay: In Vitro GR Luciferase Reporter Assay (antagonist assay)). Details: CHO-K1-GR-MMTV-Luc reporter cells, 10 nM Dexamethasone, 18-24 hours.
T1 construct: expressed in transfected cells; host or cells: CHO-K1 (CHO-K1-GR-MMTV-Luc reporter cells)
T1 sequence (P04150 1-777): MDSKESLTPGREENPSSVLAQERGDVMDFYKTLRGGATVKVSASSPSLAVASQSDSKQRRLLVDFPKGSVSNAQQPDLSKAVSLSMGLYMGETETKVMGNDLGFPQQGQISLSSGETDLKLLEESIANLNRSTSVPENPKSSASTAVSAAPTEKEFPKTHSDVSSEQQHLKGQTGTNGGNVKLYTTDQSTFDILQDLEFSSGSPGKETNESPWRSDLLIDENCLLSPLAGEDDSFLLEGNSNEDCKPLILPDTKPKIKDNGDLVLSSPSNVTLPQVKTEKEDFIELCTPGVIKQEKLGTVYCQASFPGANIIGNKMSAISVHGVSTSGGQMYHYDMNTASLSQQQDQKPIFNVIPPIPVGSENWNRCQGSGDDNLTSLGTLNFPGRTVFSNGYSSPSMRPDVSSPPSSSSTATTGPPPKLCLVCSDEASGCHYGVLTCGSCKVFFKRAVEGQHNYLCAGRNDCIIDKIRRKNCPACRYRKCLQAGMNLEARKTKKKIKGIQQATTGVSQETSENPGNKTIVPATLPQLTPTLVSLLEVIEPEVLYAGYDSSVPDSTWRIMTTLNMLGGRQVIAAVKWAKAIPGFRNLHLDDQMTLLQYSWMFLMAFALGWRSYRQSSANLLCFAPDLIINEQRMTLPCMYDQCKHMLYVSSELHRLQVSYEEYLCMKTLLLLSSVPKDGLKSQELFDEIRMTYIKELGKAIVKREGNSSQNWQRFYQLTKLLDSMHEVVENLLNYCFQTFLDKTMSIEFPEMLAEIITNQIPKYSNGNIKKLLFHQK
Assay type: cell-based
Protocol: Example A: In Vitro GR Luciferase Reporter Assay
Cell Line: CHO-K1-GR-MMTV-Luc reporter cells
Culture Media: DMEM (with phenol red)+10% FBS
Assay Media: DMEM (without phenol red)+10% CSS
Culture CHO-K1-GR-MMTV-Luc reporter cells in T175 flasks in Culture Media at conditions less than 90% confluence.
Using Bravo (Agilent) liquid handler:
200× DMSO 1:3 serial dilutions of control and test compounds in 96-well non-sterile V bottom plate in DMSO, 12 points for each compound were prepared.
Prepared 5× compound serial dilutions: Add 97.5 μL/well of Assay Media into 96-well non-sterile V bottom plate then added 2.5 ul of 200× concentration of compounds and mix well.
Seeded cells for Antagonist Assay: 5200 CHO-K1-GR-MMTV-Luc reporter cells were seeded in Greiner #781080 flat clear bottom 384-well white TC plate in 20 ul of Assay Media containing 12.5 nM Dexamethasone (final concentration=10 nM).
Added compounds: 5 μl of 5× compounds were added to appropriate wells and followed with a quick spin (1000 rpm, 10 sec) to bring media and cells to the bottom of plate. The plates were covered with SealMate film to avoid evaporation and placed in 37° C. incubator for approximately 18-24 hours.
Read plates: Equilibrate appropriate amount of Promega OneGlo luciferase reagent to room temperature. Remove the plates from incubator and add 25 uL of OneGlo reagent/well by Bravo and read the plates on Tecan Spark plate reader within 15 minutes.
The ability of the compounds disclosed herein to inhibit GR activity was quantified and the respective IC50 value was determined. Table 1 provides the cellular IC50 values of compounds disclosed herein.
`C[C@H]([C@H]1CCC2=Cc3c(cnn3-c3ccc(F)cc3)C[C@]2(C(=O)c2ncc(C(F)(F)F)s2)C1)S(=O)(=O)c1cnn(C)c1` (single isomer, unassigned) [Example 9, ((4aR,6S)-1-(4-Fluorophenyl)-6-((R)-1-((1-methyl-1H-pyrazol-4-yl)sulfonyl)ethyl)-1,4,5,6,7,8-hexahydro-4aH-benzo[f]indazol-4a-yl)(5-(trifluoromethyl)thiazol-2-yl)methanone or ((4aR,6S)-1-(4-fluorophenyl)-6-((S)-1-((1-methyl-1H-pyrazol-4-yl)sulfonyl)ethyl)-1,4,5,6,7,8-hexahydro-4aH-benzo[f]indazol-4a-yl)(5-(trifluoromethyl)thiazol-2-yl)methanone] was tested, and the IC50 was ≤ 100 nM.
`C[C@@H]([C@H]1CCC2=Cc3c(cnn3-c3ccc(F)cc3)C[C@]2(C(=O)c2ncc(C(F)(F)F)s2)C1)S(=O)(=O)c1cnn(C)c1` (single isomer, unassigned) [Example 10, ((4aR,6S)-1-(4-Fluorophenyl)-6-((R)-1-((1-methyl-1H-pyrazol-4-yl)sulfonyl)ethyl)-1,4,5,6,7,8-hexahydro-4aH-benzo[f]indazol-4a-yl)(5-(trifluoromethyl)thiazol-2-yl)methanone or ((4aR,6S)-1-(4-fluorophenyl)-6-((S)-1-((1-methyl-1H-pyrazol-4-yl)sulfonyl)ethyl)-1,4,5,6,7,8-hexahydro-4aH-benzo[f]indazol-4a-yl)(5-(trifluoromethyl)thiazol-2-yl)methanone] was tested, and the IC50 was ≤ 100 nM.
With `Cn1cnc(S(=O)(=O)N(C2CC2)[C@H]2CCC3=Cc4c(cnn4-c4ccc(F)cc4)C[C@]3(C(=O)c3ncc(C(C)(C)C)s3)C2)c1` [Example 1, N-((4aS,6S)-4a-(5-(tert-Butyl)thiazole-2-carbonyl)-1-(4-fluorophenyl)-4,4a,5,6,7,8-hexahydro-1H-benzo[f]indazol-6-yl)-N-cyclopropyl-1-methyl-1H-imidazole-4-sulfonamide] the IC50 was ≤ 100 nM.
In the case of `Cn1cnc(S(=O)(=O)N(C2CC2)[C@H]2CCC3=Cc4c(cnn4-c4ccc(F)cc4)C[C@]3(C(=O)c3cc(F)ccn3)C2)c1` [Example 2, N-Cyclopropyl-N-((4aS,6S)-1-(4-fluorophenyl)-4a-(4-fluoropicolinoyl)-4,4a,5,6,7,8-hexahydro-1H-benzo[f]indazol-6-yl)-1-methyl-1H-imidazole-4-sulfonamide], the IC50 is reported as ≤ 100 nM.
In the case of `Cn1cc(S(=O)(=O)N(C2CC2)[C@H]2CCC3=Cc4c(cnn4-c4ccc(F)nc4)C[C@]3(C(=O)c3cc(F)ccn3)C2)cn1` [Example 3, N-Cyclopropyl-N-((4aS,6S)-4a-(4-fluoropicolinoyl)-1-(6-fluoropyridin-3-yl)-4,4a,5,6,7,8-hexahydro-1H-benzo[f]indazol-6-yl)-1-methyl-1H-pyrazole-4-sulfonamide], the IC50 is reported as ≤ 100 nM.
With `Cn1cnc(S(=O)(=O)N(CC(F)(F)F)[C@H]2CCC3=Cc4c(cnn4-c4ccc(F)cc4)C[C@]3(C(=O)c3cc(F)ccn3)C2)n1` [Example 4, N-((4aS,6S)-1-(4-Fluorophenyl)-4a-(4-fluoropicolinoyl)-4,4a,5,6,7,8-hexahydro-1H-benzo[f]indazol-6-yl)-1-methyl-N-(2,2,2-trifluoroethyl)-1H-1,2,4-triazole-3-sulfonamide] the IC50 was ≤ 100 nM.
In the case of `Cn1cc(S(=O)(=O)N(CCF)[C@H]2CCC3=Cc4c(cnn4-c4ccc(F)cc4)C[C@]3(C(=O)c3cc(F)ccn3)C2)cn1` [Example 5, N-(2-Fluoroethyl)-N-((4aS,6S)-1-(4-fluorophenyl)-4a-(4-fluoropicolinoyl)-4,4a,5,6,7,8-hexahydro-1H-benzo[f]indazol-6-yl)-1-methyl-1H-pyrazole-4-sulfonamide], the IC50 is reported as ≤ 100 nM.
For `CC(C)N([C@H]1CCC2=Cc3c(cnn3-c3ccc(F)cn3)C[C@]2(C(=O)c2cc(C(F)(F)F)ccn2)C1)S(=O)(=O)c1cnn(C)c1` [Example 6, N-((4aS,6S)-1-(5-Fluoropyridin-2-yl)-4a-(4-(trifluoromethyl)picolinoyl)-4,4a,5,6,7,8-hexahydro-1H-benzo[f]indazol-6-yl)-N-isopropyl-1-methyl-1H-pyrazole-4-sulfonamide], the IC50 was ≤ 100 nM.
`Cn1cnc(S(=O)(=O)[C@H]2CCC3=Cc4c(cnn4-c4ccc(F)cc4)C[C@]3(C(=O)c3ccc(C4CC4)cn3)C2)n1` [Example 7, (5-Cyclopropylpyridin-2-yl)((4aS,6S)-1-(4-fluorophenyl)-6-((1-methyl-1H-1,2,4-triazol-3-yl)sulfonyl)-1,4,5,6,7,8-hexahydro-4aH-benzo[f]indazol-4a-yl)methanone] was tested, and the IC50 was ≤ 100 nM.
For `Cn1ccc(S(=O)(=O)C(C)(C)[C@H]2CCC3=Cc4c(cnn4-c4ccc(F)cc4)C[C@]3(C(=O)c3cc(F)ccn3)C2)n1` [Example 8, ((4aR,6S)-1-(4-Fluorophenyl)-6-(2-((1-methyl-1H-pyrazol-3-yl)sulfonyl)propan-2-yl)-1,4,5,6,7,8-hexahydro-4aH-benzo[f]indazol-4a-yl)(4-fluoropyridin-2-yl)methanone], the IC50 was ≤ 100 nM.
`Cn1cnc(S(=O)(=O)N(C2CC2)[C@H]2CCC3=Cc4c(cnn4-c4ccc(F)nc4)C[C@]3(C(=O)c3cc(C(F)(F)F)ccn3)C2)n1` [Example 11, N-cyclopropyl-N-((4aS,6S)-1-(6-fluoropyridin-3-yl)-4a-(4-(trifluoromethyl)picolinoyl)-4,4a,5,6,7,8-hexahydro-1H-benzo[f]indazol-6-yl)-1-methyl-1H-1,2,4-triazole-3-sulfonamide] was tested, and the IC50 was ≤ 100 nM.
With `Cn1cc(S(=O)(=O)N(CC(F)F)[C@H]2CCC3=Cc4c(cnn4-c4ccc(F)cc4)C[C@]3(C(=O)c3ncc(C(F)(F)F)s3)C2)cn1` [Example 12] the IC50 was ≤ 100 nM.
`Cn1cc(S(=O)(=O)N(C2CC(F)(F)C2)[C@H]2CCC3=Cc4c(cnn4-c4ccc(F)cc4)C[C@]3(C(=O)c3cc(Cl)ccn3)C2)cn1` [Example 13] was tested, and the IC50 was ≤ 100 nM.
With `Cn1cnc(S(=O)(=O)N([C@H]2CCC3=Cc4c(cnn4-c4ccc(F)cc4)C[C@]3(C(=O)c3ncc(C(F)(F)F)s3)C2)[C@H]2C[C@@H](C#N)C2)n1` [Example 14] the IC50 was ≤ 100 nM.
In the case of `Cn1cc(S(=O)(=O)C[C@H]2CCC3=Cc4c(cnn4-c4ccc(F)cc4)C[C@]3(C(=O)c3cc(F)ccn3)C2)cn1` [Example 15], the IC50 is reported as ≤ 100 nM.
In the case of `Cn1cc(S(=O)(=O)N(C2CC2)[C@H]2CCC3=Cc4c(cnn4-c4ccc(F)nc4)C[C@]3(C(=O)c3ncc(C(F)(F)F)s3)C2)cn1` [Example 16], the IC50 is reported as ≤ 100 nM.
`Cn1ncnc1S(=O)(=O)[C@H]1CCC2=Cc3c(cnn3-c3ccc(F)cc3)C[C@]2(C(=O)c2cc(C(F)(F)F)ccn2)C1` [Example 17] was tested, and the IC50 was ≤ 100 nM.
With `Cn1cc(S(=O)(=O)N(C2CC2)[C@H]2CCC3=Cc4c(cnn4-c4ccc(F)nc4)C[C@]3(C(=O)c3cc(C(F)(F)F)ccn3)C2)cn1` [Example 18] the IC50 was ≤ 100 nM.
`O=C(c1cc(C(F)(F)F)ccn1)[C@]12Cc3cnn(-c4ccc(F)nc4)c3C=C1CC[C@H](N(C1CC1)S(=O)(=O)c1ccc(F)cc1)C2` [Example 19] was tested, and the IC50 was ≤ 100 nM.
With `CN(C)C(=O)CN([C@H]1CCC2=Cc3c(cnn3-c3ccc(F)cc3)C[C@]2(C(=O)c2cc(C(F)(F)F)ccn2)C1)S(=O)(=O)c1ccn(C)n1` [Example 21] the IC50 was ≤ 100 nM.
`Cn1cnc(S(=O)(=O)N(C2CC2)[C@H]2CCC3=Cc4c(cnn4-c4ccc(F)cc4)C[C@]3(C(=O)c3csc(C(F)(F)F)n3)C2)n1` [Example 22] was tested, and the IC50 was ≤ 100 nM.
For `O=C(c1cc(F)ccn1)[C@]12Cc3cnn(-c4ccc(F)cc4)c3C=C1CC[C@H](N(C1CC(F)(F)C1)S(=O)(=O)c1ccc(F)cc1)C2` [Example 23], the IC50 was ≤ 100 nM.
With `O=C(c1cc(Cl)ccn1)[C@]12Cc3cnn(-c4ccc(F)cc4)c3C=C1CC[C@H](N(C1CC(F)(F)C1)S(=O)(=O)c1ccc(F)cc1)C2` [Example 24] the IC50 was ≤ 100 nM.
`O=C(c1cc(F)ccn1)[C@]12Cc3cnn(-c4ccc(F)cc4)c3C=C1CC[C@H](N(CC(F)F)S(=O)(=O)c1ccc(F)cc1)C2` [Example 25] was tested, and the IC50 was ≤ 100 nM.
For `Cn1cc(S(=O)(=O)C[C@H]2CCC3=Cc4c(cnn4-c4ccc(F)cc4)C[C@]3(C(=O)c3cc(Cl)ccn3)C2)cn1` [Example 26], the IC50 was ≤ 100 nM.
